In assay [1] the target is D(2) dopamine receptor (Rattus norvegicus, UniProt P61169). The experiment in a line: Ability to inhibit the [3H]spiperone binding to striatum Dopamine receptor D2 was determined in rat. Type of assay: tissue-based.
Assay [2] has as its system Mus musculus. Put plainly: Antagonism of apomorphine-induced climbing in mice when administered perorally 60 min prior to apomorphine (1 mg/kg). Type of assay: functional. Particulars: po.
In assay [3] the test system is Rattus norvegicus. The experiment in a line: Suppression of conditioned avoidance behavior in rats when administered perorally 60 min before measurement. Type of assay: functional. Particulars: po.
Assay [4] concerns Rattus norvegicus. Put plainly: Suppression of conditioned avoidance behavior in rats when administered intraperitoneally 30 min before measurement. Particulars: ip.
Assay [5] concerns Mus musculus. Put plainly: Antagonism of apomorphine-induced climbing in mice when administered intraperitoneally 30 min prior to apomorphine (1 mg/kg). Particulars: ip.
Assay [6] concerns the target Serotonin 2 (5-HT2) receptor (Rattus norvegicus, UniProt P30994+P08909+P14842). Put plainly: Ability to inhibit [3H]spiperone binding to 5-hydroxytryptamine 2 receptor determined in rat.
In assay [7] the target is T1, Adrenergic receptor alpha-1 (Rattus norvegicus, UniProt P15823+P23944+P43140).
T1 sequence (P15823 whole entry): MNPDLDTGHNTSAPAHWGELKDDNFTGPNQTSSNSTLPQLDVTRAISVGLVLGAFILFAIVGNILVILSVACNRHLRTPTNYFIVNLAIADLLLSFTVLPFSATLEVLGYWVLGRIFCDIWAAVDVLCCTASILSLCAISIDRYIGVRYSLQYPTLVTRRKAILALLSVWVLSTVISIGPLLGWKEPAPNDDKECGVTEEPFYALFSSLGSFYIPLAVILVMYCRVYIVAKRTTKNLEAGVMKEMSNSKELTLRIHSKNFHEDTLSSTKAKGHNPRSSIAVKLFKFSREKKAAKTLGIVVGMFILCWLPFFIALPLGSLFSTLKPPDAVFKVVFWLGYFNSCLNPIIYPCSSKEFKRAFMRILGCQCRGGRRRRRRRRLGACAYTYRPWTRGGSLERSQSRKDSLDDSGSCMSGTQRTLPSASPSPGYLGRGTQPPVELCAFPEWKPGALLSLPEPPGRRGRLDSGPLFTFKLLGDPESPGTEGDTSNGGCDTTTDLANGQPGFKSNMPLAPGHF
T1 sequence (P23944 whole entry): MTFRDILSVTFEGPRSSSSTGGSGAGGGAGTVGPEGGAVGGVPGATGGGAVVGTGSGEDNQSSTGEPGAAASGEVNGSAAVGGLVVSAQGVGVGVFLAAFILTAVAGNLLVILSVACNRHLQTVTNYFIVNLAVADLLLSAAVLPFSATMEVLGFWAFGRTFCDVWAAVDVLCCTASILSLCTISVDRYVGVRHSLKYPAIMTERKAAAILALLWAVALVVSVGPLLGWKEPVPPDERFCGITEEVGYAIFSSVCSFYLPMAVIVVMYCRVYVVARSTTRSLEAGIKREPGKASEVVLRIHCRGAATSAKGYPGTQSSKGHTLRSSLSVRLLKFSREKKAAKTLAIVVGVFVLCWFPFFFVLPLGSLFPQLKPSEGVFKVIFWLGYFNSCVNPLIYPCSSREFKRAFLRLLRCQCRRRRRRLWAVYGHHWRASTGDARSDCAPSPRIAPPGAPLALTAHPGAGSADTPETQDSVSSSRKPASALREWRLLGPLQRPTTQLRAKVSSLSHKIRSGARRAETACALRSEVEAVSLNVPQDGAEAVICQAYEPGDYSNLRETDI
T1 sequence (P43140 whole entry): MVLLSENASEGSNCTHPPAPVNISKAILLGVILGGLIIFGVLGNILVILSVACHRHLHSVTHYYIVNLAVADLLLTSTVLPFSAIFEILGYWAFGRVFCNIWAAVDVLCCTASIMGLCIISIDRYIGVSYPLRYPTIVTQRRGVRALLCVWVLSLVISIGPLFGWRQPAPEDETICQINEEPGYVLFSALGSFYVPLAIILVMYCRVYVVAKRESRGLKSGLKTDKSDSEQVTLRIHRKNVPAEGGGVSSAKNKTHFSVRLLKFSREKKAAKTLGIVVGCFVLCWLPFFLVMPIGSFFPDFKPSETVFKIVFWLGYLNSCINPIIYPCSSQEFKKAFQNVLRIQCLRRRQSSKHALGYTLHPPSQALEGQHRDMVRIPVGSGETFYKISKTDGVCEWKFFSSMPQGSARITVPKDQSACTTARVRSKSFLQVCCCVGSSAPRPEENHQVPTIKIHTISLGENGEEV
The experiment in a line: Ability to inhibit [3H]WB-4101 binding to alpha-1 adrenergic receptor was determined in rat.

The test system of assay [8] is Rattus norvegicus. The experiment in a line: Induction of catalepsy in rats when administered intraperitoneally 4 hr prior to measurement to groups of 9 animals. value is based on at least three dose levels(40% of animals showed catalepsy). Particulars: ip. Type of assay: functional.

pKi: −log10 of the molar value.

Sequence of D(2) dopamine receptor (P61169 whole entry): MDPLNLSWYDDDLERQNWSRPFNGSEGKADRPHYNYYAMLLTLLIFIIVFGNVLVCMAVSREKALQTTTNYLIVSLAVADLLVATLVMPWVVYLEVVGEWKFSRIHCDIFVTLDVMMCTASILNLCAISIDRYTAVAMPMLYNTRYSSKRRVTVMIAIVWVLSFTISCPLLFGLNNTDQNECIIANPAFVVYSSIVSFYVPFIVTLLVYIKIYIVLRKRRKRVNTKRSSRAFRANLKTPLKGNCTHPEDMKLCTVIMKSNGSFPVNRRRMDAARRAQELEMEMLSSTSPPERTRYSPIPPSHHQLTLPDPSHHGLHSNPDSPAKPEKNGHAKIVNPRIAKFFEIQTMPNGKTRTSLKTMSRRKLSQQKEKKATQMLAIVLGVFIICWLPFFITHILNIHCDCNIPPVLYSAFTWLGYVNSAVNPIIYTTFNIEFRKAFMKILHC

On to `CCS(=O)(=O)c1ccc(OC)c(-c2ccc(CN3CCN(c4ccccc4OC)CC3)[nH]2)c1`, for which, in assay [1], the pKi is 8.14. Moreover, the ED50 in assay [2] was 35 mg/kg; in assay [3], over 50 mg/kg; in assay [4], over 20 mg/kg; in assay [5] it was over 20 mg/kg.

In turn, `CCS(=O)(=O)c1ccc(OC)c(-c2ccc(CN3CCC(O)(c4ccc(Cl)cc4)CC3)[nH]2)c1` gave a negative-log Ki (pKi) in assay [1] of 6.82. Also, the ED50 was over 100 mg/kg in assay [2] and over 20 mg/kg in assay [5].

As for `COc1ccccc1N1CCN(CCCC(=O)c2ccc(F)cc2)CC1` [FLUANISONE], the results for the Ki in assay [6] and in assay [7] were 0.052 µM and 0.00087 µM, respectively. The molecule also showed a pKi in assay [1] of 8.54. Further, the ED50 in assay [2] is 25 mg/kg; in assay [3], over 50 mg/kg; in assay [8], at least 22 mg/kg; in assay [4], 2.2 mg/kg; in assay [5], 0.4 mg/kg.

In the case of `COc1ccccc1N1CCN(CCNC(=O)c2ccc(F)cc2)CC1`, the Ki in assay [6] turned out to be 0.7 µM; in assay [7] it was 0.009 µM. Moreover, the ED50 in assay [2] is 15 mg/kg; in assay [3], 30 mg/kg; in assay [8], over 7.4 mg/kg; in assay [4], 0.74 mg/kg; in assay [5], 0.4 mg/kg.

As for `CCN1CCC[C@H]1CNC(=O)c1cc(S(N)(=O)=O)ccc1OC` [LEVOSULPIRIDE], the Ki in assay [7] is 15 µM. For the same molecule, the ED50 in assay [2] is 195 mg/kg; in assay [3], over 220 mg/kg; in assay [4] it was over 100 mg/kg; in assay [5], over 21 mg/kg.

For `OC1(c2ccc(Cl)cc2)CCN(Cc2ccc(-c3ccc(F)cc3)[nH]2)CC1`, the values for the inhibition constant Ki in assay [6] and in assay [7] were 9.3 µM and 1.6 µM, respectively. The molecule further had a pKi in assay [1] of 5.96. For the same molecule, the ED50 is 51 mg/kg in assay [2], over 50 mg/kg in assay [3], over 20 mg/kg in assay [4] and 25 mg/kg in assay [5].

`O=C(CCCN1CCC(O)(c2ccc(Cl)cc2)CC1)c1ccc(F)cc1` [HALOPERIDOL]: the ED50 was 0.8 mg/kg in assay [3], 2 mg/kg in assay [8], 0.45 mg/kg in assay [4] and 0.08 mg/kg in assay [5].

Turning to `CCN1CCC[C@H]1CNC(=O)c1cc(S(=O)(=O)CC)ccc1OC`, the Ki was found to be 54 µM in assay [6] and 1.1 µM in assay [7]. For the same molecule, the pKi in assay [1] is 8.03. Moreover, the ED50 in assay [2] was 36 mg/kg; in assay [3], 70 mg/kg; in assay [5] it was over 10 mg/kg.

As to `O=C(NCCN1CCC(O)(c2ccc(Cl)cc2)CC1)c1ccc(F)cc1`, the inhibition constant (Ki) in assay [7] was determined as 0.25 µM. The pKi in assay [1] is 6.32. For the same molecule, the ED50 is 20 mg/kg in assay [2], over 50 mg/kg in assay [3] and 9 mg/kg in assay [5].

As for `COc1ccccc1N1CCN(Cc2ccc(-c3ccc(F)cc3)[nH]2)CC1`, the results for the Ki in assay [6] and in assay [7] were 0.31 µM and 0.057 µM, respectively. Besides, the negative-log Ki (pKi) in assay [1] was 9.04. In addition, the ED50 in assay [2] is 0.9 mg/kg; in assay [3], 8.5 mg/kg; in assay [8], over 24 mg/kg; in assay [4], 2.3 mg/kg; in assay [5], 0.2 mg/kg.

`CCN1CCCC1c1ccc(-c2cc(S(=O)(=O)CC)ccc2OC)[nH]1` (configuration not stated) showed a pKi in assay [1] of 7.54. The ED50 is 11.4 mg/kg in assay [2], 35 mg/kg in assay [3] and 4.7 mg/kg in assay [5].

Source of the values: ChEMBL document CHEMBL1123646, “2-Phenylpyrroles as conformationally restricted benzamide analogues. A new class of potential antipsychotics. 1” (J Med Chem, 1987).
